This passage reports IC50 results from patent US10689377B2 (Mirati Therapeutics, Inc., priority 2017, dated 2020).

What is called IC50 is the concentration needed to halve the response being measured.

The target in this experiment is KRas G12C (Homo sapiens, UniProt P01116, G12C). As to the kind of experiment: Cellular inhibition of KRas G12C measured by Phospho-ERK in NCI-H358 cells. It counts as cell-based. Conditions: pERK(Thr202/Tyr204) normalized with GAPDH, NCI-H358 cells, 3 hours; read-out: IC50. The method, boiled down: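 Ratio of phospho-ERK(Thr202/Tyr204) to GAPDH, read by near-infrared secondary antibodies on fixed, permeabilised NCI-H358 cells, expressed relative to DMSO control. Compound exposure was 3 h at 0.5% DMSO. IC50 values come from 4-parameter curve fits.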
Sequence of KRas G12C (P01116 1-188 isoform P01116-2 G12C): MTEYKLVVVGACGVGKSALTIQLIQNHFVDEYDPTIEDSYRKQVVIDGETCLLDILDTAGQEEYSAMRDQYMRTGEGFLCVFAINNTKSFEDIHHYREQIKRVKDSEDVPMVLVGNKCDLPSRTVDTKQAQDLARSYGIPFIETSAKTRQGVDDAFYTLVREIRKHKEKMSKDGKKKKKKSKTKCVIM
In the case of `C=CC(=O)N1CCN(c2nc(OCCCN3CCCC3)nc3c2CCN(c2cc(O)cc4ccccc24)C3)CC1` [Example 39, 1-(4-(7-(3-hydroxynaphthalen-1-yl)-2-(3-(pyrrolidin-1-yl)propoxy)-5,6,7,8-tetrahydropyrido[3,4-d]pyrimidin-4-yl)piperazin-1-yl)prop-2-en-1-one], the IC50 was 0.0001 to 1 µM. Under `C=CC(=O)N1CCN(c2nc(OC[C@@H]3CN(C)CCO3)nc3c2CCN(c2cccc4ccccc24)C3)CC1CC#N` (stereo partly drawn) [Example 271, 2-(1-acryloyl-4-(2-(((S)-4-methylmorpholin-2-yl)methoxy)-7-(naphthalen-1-yl)-5,6,7,8-tetrahydropyrido[3,4-d]pyrimidin-4-yl)piperazin-2-yl)acetonitrile] stands 0.0001 to 1 µM. Next, `C=CC(=O)N1CCN(c2nc(O[C@H](C)CN(C)C)nc3c2CCN(c2cc(O)c(Cl)c4ccccc24)C3)CC1` [Example 125, (R)-1-(4-(7-(4-chloro-3-hydroxynaphthalen-1-yl)-2-((1-(dimethylamino)propan-2-yl)oxy)-5,6,7,8-tetrahydropyrido[3,4-d]pyrimidin-4-yl)piperazin-1-yl)prop-2-en-1-one]: above 1 µM; `C=C(F)C(=O)N1CCN(c2nc(OC[C@@H]3[C@H](O)CC(=O)N3C)nc3c2CCN(c2cccc4cccc(Cl)c24)C3)C[C@@H]1CC#N` [Example 573, 2-[(2S)-4-[7-(8-Chloro-1-naphthyl)-2-[[(2R,3R)-3-hydroxy-1-methyl-5-oxo-pyrrolidin-2-yl]methoxy]-6,8-dihydro-5H-pyrido[3,4-d]pyrimidin-4-yl]-1-(2-fluoroprop-2-enoyl)piperazin-2-yl]acetonitrile]: above 1 µM; `C=CC(=O)N1CCN(c2nc(OCCCN3CCOCC3)nc3c2CCN(c2cc(O)ccc2F)C3)CC1` [Example 42, 1-(4-(7-(2-fluoro-5-hydroxyphenyl)-2-(3-morpholinopropoxy)-5,6,7,8-tetrahydropyrido[3,4-d]pyrimidin-4-yl)piperazin-1-yl)prop-2-en-1-one]: above 1 µM. Next, `CO[C@@H]1C[C@H](COc2nc3c(c(N4CCN(C(=O)/C=C/CO)[C@@H](CC#N)C4)n2)CCN(c2cccc4cccc(C)c24)C3)N(C)C1` [Example 523, 2-[(2S)-1-[(E)-4-hydroxybut-2-enoyl]-4-[2-[[(2R,4R)-4-methoxy-1-methyl-pyrrolidin-2-yl]methoxy]-7-(8-methyl-1-naphthyl)-6,8-dihydro-5H-pyrido[3,4-d]pyrimidin-4-yl]piperazin-2-yl]acetonitrile]: 0.0001 to 1 µM; `C=CC(=O)N1CCN(c2nc(OCCN3CCOCC3)nc3c2CCN(c2cc(O)cc4ccccc24)C3)CC1` [Example 117, 1-(4-(7-(3-hydroxynaphthalen-1-yl)-2-(2-morpholinoethoxy)-5,6,7,8-tetrahydropyrido[3,4-d]pyrimidin-4-yl)piperazin-1-yl)prop-2-en-1-one]: above 1 µM; `C=CC(=O)N1CCN(c2nc(OC[C@@H]3CCC(C)(C)N3C)nc3c2CCN(c2cccc4ccccc24)C3)CC1CC#N` (stereo partly drawn) [Example 301, 2-[4-[7-(1-naphthyl)-2-[[(2S)-1,5,5-trimethylpyrrolidin-2-yl]methoxy]-6,8-dihydro-5H-pyrido[3,4-d]pyrimidin-4-yl]-1-prop-2-enoyl-piperazin-2-yl]acetonitrile]: 0.0001 to 1 µM.

On to `C=CC(=O)N1CCN(c2nc(OC[C@@H]3CCCN3C)nc3c2CCN(c2cccc(F)c2C(F)(F)F)C3)C[C@@H]1CC#N` [Example 328], for which the IC50 was in the range of 0.0001 to 1 µM.

As for `C=CC(=O)N1CCN(c2nc(OC[C@@H]3CCCN3C)nc3c2CCN(c2cccc4cnccc24)C3)CC1CC#N` (stereo partly drawn) [Example 262, 2-[4-[7-(5-isoquinolyl)-2-[[(2S)-1-methylpyrrolidin-2-yl]methoxy]-6,8-dihydro-5H-pyrido[3,4-d]pyrimidin-4-yl]-1-prop-2-enoyl-piperazin-2-yl]acetonitrile], the IC50 is above 1 µM. Next, `CC#CC(=O)N1CCN(c2nc(OC[C@@H]3CCCN3C)nc3c2CCN(c2cccc4ccccc24)C3)CC1CC#N` (stereo partly drawn) [Example 376, 2-(1-(but-2-ynoyl)-4-(2-(((S)-1-methylpyrrolidin-2-yl)methoxy)-7-(naphthalen-1-yl)-5,6,7,8-tetrahydropyrido[3,4-d]pyrimidin-4-yl)piperazin-2-yl)acetonitrile 2,2,2-trifluoroacetate]: 0.0001 to 1 µM. Next, `C=CC(=O)N1CCN(c2nc(OCCN3CCCC[C@H]3C)nc3c2CCN(c2cc(O)cc4ccccc24)C3)CC1` [Example 97, (R)-1-(4-(7-(3-hydroxynaphthalen-1-yl)-2-(2-(2-methylpiperidin-1-yl)ethoxy)-5,6,7,8-tetrahydropyrido[3,4-d]pyrimidin-4-yl)piperazin-1-yl)prop-2-en-1-one]: 0.0001 to 1 µM; `C=CC(=O)N1CCN(c2nc(OC[C@@H]3CCCN3C)nc3c2CCN(c2cccc4cccn24)C3)C[C@@H]1CC#N` [Example 442, 2-((S)-1-acryloyl-4-(7-(indolizin-5-yl)-2-(((S)-1-methylpyrrolidin-2-yl)methoxy)-5,6,7,8-tetrahydropyrido[3,4-d]pyrimidin-4-yl)piperazin-2-yl)acetonitrile]: 0.0001 to 1 µM; `C=CC(=O)N1CCN(c2nc(OCCN3CCC(F)(F)CC3)nc3c2CCN(c2cc(O)cc4ccccc24)C3)CC1` [Example 109]: above 1 µM. Under `C=CC(=O)N1CCN(c2nc(OC[C@@H]3CCCN3C)nc3c2CCN(c2ccccc2C(F)F)C3)CC1CC#N` (some centres unmarked) [Example 449] stands 0.0001 to 1 µM. Consider `C=CC(=O)N1CCN(c2nc(OC[C@@H]3CCCN3C)nc3c2CCN(c2cccc4ccccc24)C3)C(CC#N)C1` (stereo partly drawn) [Example 439, 2-(4-acryloyl-1-(2-(((S)-1-methylpyrrolidin-2-yl)methoxy)-7-(naphthalen-1-yl)-5,6,7,8-tetrahydropyrido[3,4-d]pyrimidin-4-yl)piperazin-2-yl)acetonitrile], for which the IC50 is above 1 µM.

For `C=CC(=O)N1CCN(c2nc(OCCCN3CCCCC3)nc3c2CCN(c2c(C)ccc4[nH]ncc24)C3)CC1` [Example 160, 1-(4-(7-(5-methyl-1H-indazol-4-yl)-2-(3-(piperidin-1-yl)propoxy)-5,6,7,8-tetrahydropyrido[3,4-d]pyrimidin-4-yl)piperazin-1-yl)prop-2-en-1-one], the IC50 is above 1 µM. Consider `C=CC(=O)N1CCN(c2nc(O[C@H](C)CN(C)C)nc3c2CCN(c2cc(OC(F)(F)F)ccc2O)C3)CC1` [Example 86, (R)-1-(4-(2-((1-(dimethylamino)propan-2-yl)oxy)-7-(2-hydroxy-5-(trifluoromethoxy)phenyl)-5,6,7,8-tetrahydropyrido[3,4-d]pyrimidin-4-yl)piperazin-1-yl)prop-2-en-1-one], for which the IC50 was above 1 µM. Under `C=CC(=O)N1CCN(c2nc(N3CCC(N(C)C)C3)nc3c2CCN(c2cc(O)cc4ccccc24)C3)CC1` (centres unmarked) [Example 13, 1-(4-(2-(3-(dimethylamino)pyrrolidin-1-yl)-7-(3-hydroxynaphthalen-1-yl)-5,6,7,8-tetrahydropyrido[3,4-d]pyrimidin-4-yl)piperazin-1-yl)prop-2-en-1-one] stands above 1 µM; under `C=CC(=O)N1CCN(c2nc(OCCN3CCC(F)(F)CC3)nc3c2CCN(c2cccc4cccc(Cl)c24)C3)C[C@@H]1CC#N` [Example 454], 0.0001 to 1 µM.
